What was measured:
[1] = xn = mol fraction of the nth substance listed; details: 308.15 K, Drop volume
[2] = 308.15 K, Drop volume

CCOC(=O)OCC [diethyl carbonate] + Cc1ccc(C)cc1
[1]
Details	surface tension liquid-gas [mN/m]
x1 = 0.0995	25.98
x1 = 0.2009	25.68
x1 = 0.2985	25.42
x1 = 0.3971	25.18
x1 = 0.4956	24.94
x1 = 0.5433	24.83
x1 = 0.6007	24.7
x1 = 0.6457	24.6
x1 = 0.6995	24.49
x1 = 0.7986	24.3
x1 = 0.899	24.12
x1 = 0.9497	24.06

CCOC(=O)OCC [diethyl carbonate] + CCCCCCCCCC
[1]
Details	surface tension liquid-gas [mN/m]
x1 = 0.0512	21.9
x1 = 0.0983	21.84
x1 = 0.1997	21.75
x1 = 0.2968	21.78
x1 = 0.406	21.84
x1 = 0.499	21.88
x1 = 0.5621	21.96
x1 = 0.5994	21.99
x1 = 0.6966	22.19
x1 = 0.7951	22.49
x1 = 0.9018	23.1
x1 = 0.9511	23.5

CCOC(=O)OCC [diethyl carbonate] + CCCCCCCC
[1]
Details	surface tension liquid-gas [mN/m]
x1 = 0.049	19.83
x1 = 0.1008	19.89
x1 = 0.2	19.91
x1 = 0.2969	20.05
x1 = 0.3972	20.26
x1 = 0.4971	20.5
x1 = 0.5495	20.63
x1 = 0.5991	20.79
x1 = 0.695	21.16
x1 = 0.7938	21.7
x1 = 0.8978	22.63
x1 = 0.9504	23.33

Cc1ccc(C)cc1 [1,4-dimethylbenzene] + CCCCCCCCCC
[1]
Details	surface tension liquid-gas [mN/m]
x1 = 0.1047	22.18
x1 = 0.2152	22.39
x1 = 0.2977	22.57
x1 = 0.3945	22.79
x1 = 0.4993	23.11
x1 = 0.549	23.28
x1 = 0.5997	23.46
x1 = 0.7004	23.88
x1 = 0.8018	24.47
x1 = 0.9004	25.2
x1 = 0.9501	25.67

Cc1ccc(C)cc1 [1,4-dimethylbenzene]
Details	surface tension liquid-gas [mN/m]
[2]	26.29

CCCCCCCC [octane]
Details	surface tension liquid-gas [mN/m]
[2]	19.9

CCCCCCCCCC [decane] + COC(=O)OC
[1]
Details	surface tension liquid-gas [mN/m]
x2 = 0.0512	21.95
x2 = 0.09	21.92
x2 = 0.2006	21.9
x2 = 0.2853	21.92
x2 = 0.3971	21.97
x2 = 0.4949	22.11
x2 = 0.5987	22.01
x2 = 0.6988	22.18
x2 = 0.7971	22.54
x2 = 0.8983	23.81
x2 = 0.9505	24.82

CCCCCCCCCC [decane]
Details	surface tension liquid-gas [mN/m]
[2]	22.1

Cc1ccc(C)cc1 [1,4-dimethylbenzene] + COC(=O)OC
[1]
Details	surface tension liquid-gas [mN/m]
x2 = 0.0503	26.19
x2 = 0.1937	25.97
x2 = 0.2988	25.84
x2 = 0.4013	25.76
x2 = 0.5016	25.7
x2 = 0.6032	25.67
x2 = 0.7029	25.67
x2 = 0.7964	25.74
x2 = 0.8945	25.98
x2 = 0.9442	26.13

COC(=O)OC [dimethyl carbonate] + CCCCCCCC
[1]
Details	surface tension liquid-gas [mN/m]
x1 = 0.0503	19.8
x1 = 0.0976	19.78
x1 = 0.196	19.85
x1 = 0.2941	19.93
x1 = 0.3969	20.09
x1 = 0.495	20.25
x1 = 0.5455	20.39
x1 = 0.5971	20.54
x1 = 0.6977	20.8
x1 = 0.7977	21.47
x1 = 0.8983	23.04
x1 = 0.9492	24.53

CCOC(=O)OCC [diethyl carbonate]
Details	surface tension liquid-gas [mN/m]
[2]	24.02

Cc1ccc(C)cc1 [1,4-dimethylbenzene] + CCCCCCCC
[1]
Details	surface tension liquid-gas [mN/m]
x1 = 0.0488	20.02
x1 = 0.109	20.25
x1 = 0.1953	20.52
x1 = 0.2973	20.96
x1 = 0.3959	21.41
x1 = 0.4978	21.91
x1 = 0.5503	22.2
x1 = 0.5935	22.46
x1 = 0.6966	23.11
x1 = 0.8004	23.93
x1 = 0.9017	24.92
x1 = 0.9504	25.5

COC(=O)OC [dimethyl carbonate]
Details	surface tension liquid-gas [mN/m]
[2]	26.55
